Reference: patent publication US20250171426A1, “PYRIMIDINEDIONE-BASED COMPOUNDS AS AXL, C-MET, AND MER INHIBITORS AND METHODS OF USE THEREOF” (CMG Pharmaceutical Co., Ltd., priority 2022, published 2025)

Experiments:
[1] = test system: PC9ER; assay: Cell viability assay (CellTiter-Glo 2.0), erlotinib-resistant PC9/ER cells; format: cell-based; conditions: 72 h, combination of EGFR TKI and inhibitor of Formula (I), read-out: Relative cell viability, IC50 (nM) PC9ER
Description: (§1) To explore c-MET and AXL mechanisms of EGFR TKI resistance, resistant cells of the EGFR TKI hypersensitive EGFR exon 19 mutant NSCLC cell line, HCC827 and PC9 were generated by exposing these cells to increasing concentrations of EGFR TKI for over 3 months.
(§2) Gefitinib-resistant cells were referred to as HCC827/GR. […] Osimertinib-resistant cells were referred to as HCC827/OR.

[2] = test system: HCC827ER; assay: Cell viability assay (CellTiter-Glo 2.0), erlotinib-resistant HCC827/ER cells; format: cell-based, human; conditions: 72 h, combination of EGFR TKI and inhibitor of Formula (I), read-out: Relative cell viability, IC50 (nM) HCC827ER
Description: as §1, §2

[3] = test system: HCC827GR; assay: Cell viability assay (CellTiter-Glo 2.0), gefitinib-resistant HCC827/GR cells; format: cell-based, human; conditions: 72 h, combination of EGFR TKI and inhibitor of Formula (I), read-out: Relative cell viability, IC50 (nM) HCC827GR
Description: as §1
The human cell line HCC827 was purchased from the American Type Culture Collection (Manassas, VA), and the PC9 cell line was obtained from RIKEN Cell Bank (Ibaraki, Japan). […] Gefitinib-resistant cells were referred to as HCC827/GR. […] Osimertinib-resistant cells were referred to as HCC827/OR.
(§3) Cell viability assays were carried out by plating 1,000 cells per well of HCC827 or PC9 resistant cells, respectively, into white transparent-bottom 384-well plates. The cells were treated with each TKI across a 10-dose range from 1 nM to 10,000 nM. After 72 h of drug treatment, cell viability was measured using the CellTiter-Glo 2.0 assay (Promega, Madison, WI).
as §3

[4] = test system: HCC827OR; assay: Cell viability assay (CellTiter-Glo 2.0), osimertinib-resistant HCC827/OR cells; format: cell-based, human; conditions: 72 h; combination of EGFR TKI and inhibitor of Formula (I); EGFR TKI-resistant cells; read-out: Relative cell viability; IC50 (nM) HCC827OR
Description: as §1, §2

IC50 [1]: < 1000 nM
IC50 [2]: < 1000 nM
IC50 [3]: < 1000 nM
IC50 [4]: < 10000 nM
Substance: N-(4-(2-amino-3-(3-piperidin-4-yl)prop-1-ynyl)pyridin-4-yloxy)-3-fluorophenyl)-3-cyclohexyl-1-ethyl-2,4-dioxo-1,2,3,4-tetrahydropyrimidine-5-carboxamide [Example 65]
